These results are taken from patent US20210260010A1, “COMPOSITIONS AND METHODS FOR THE REDUCTION OR TREATMENT OF INFLAMMATION” (AXCELLA HEALTH INC., priority 2018, published 2021).

This series is described as follows: FATZO mouse NASH model on western diet plus fructose (Example 8): body and liver weight, liver histology, NAS, fibrosis. The class given is in vivo, FATZO mice. The text has this:
NASH was induced in 60 male FATZO mice by a western diet (Research Diet #D12079B; fat 40% kcal, protein 17% kcal, carbohydrate 43% kcal) supplemented with 5% fructose in the drinking water (WDF) during a 16 week induction phase. Diets and water were available ad libitum. Littermate control male FATZO mice fed with a control diet (n=6, Purina #5008; fat 17% kcal, protein 27% kcal, carbohydrate 56% kcal) and sterile water were set up for control purpose. Mice were housed in plastic cages with microisolator. Sterilized bedding was replaced once a week. Mice were housed three per cage and maintained on a twelve hour light cycle throughout study duration. Room temperature was monitored daily and maintained at 22-25° C. Body weight was recorded every week during the induction phase.
Following 16 weeks diet induction, 6 mice remained on control diet (group 1, Control) while 60 induced mice were randomized on body weight and plasma glucose (fed) for assignment to the following treatments. FATZO mice were administered with test articles starting at 16 weeks post western diet NASH induction for 4 weeks. Test articles were administered by oral gavage. Animals were euthanized at 20 weeks post western diet NASH induction, and tissues were harvested for analysis.
[…], […]+G, LRQNAC, and OCA (Advanced ChemBlocks, Inc.), incipient, and water for irrigation were provided by Axcella Health, Inc. 0.5% Methylcellulosewas provided by CrownBio, Inc. Dosing solutions were prepared according to Appendix 1. […] Obeticholic acid (OCA) was suspended in 0.5% methylcellulose in water for irrigation. All test articles were stored refrigerated. TA compounds were provided in frozen powder form by the sponsor. Dosing was continued for 4 weeks.
[…], […]+G, LRQNAC, OCA and Vehicle were administered by oral gavage at a volume of 10 mL/kg throughout the study. Dosages were calculated by daily body weight. […], […]+G, LRQNAC, and Vehicle were administered twice per day (BID), while OCA was administered once a day (QD) in the morning. Mice receiving OCA once per day (QD), and one vehicle QD. Doses were administered by oral gavage at 0700 and 1800 by oral gavage for 4 weeks.
The viability, clinical signs and behavior were monitored daily. Body weight was recorded daily during the dosing period. Blood samples were collected weekly in the AM (0700) via tail clip for glucose measurement (StatStrip glucometer).
Animals were anesthetized with CO2 inhalation and exsanguinated via cardiac puncture for euthanasia. Terminal blood samples (K2EDTA) were obtained by cardiac puncture in anesthetized animals at termination. Samples were provided frozen to Axcella Health. Organ weights (total liver, gonadal fat pads) were recorded. Pancreas, and small intestine and gonadal fat pads were fixed in 10% Buffered Formalin and prepared as directed in protocol. A section of small intestine, gonadal fat pad and liver were also snap frozen in liquid nitrogen and shipped to the sponsor.
The liver tissues were fixed in Bouin's solution at 4° C. for 24 hours followed by baths of standard concentrations of alcohol then xylene to prepare the tissues for paraffin embedding. After being embedded in paraffin and cooled, five-micron sections were cut and stained for routine H&E and Picric Sirius Red. A section of both right and left lobes of the livers were frozen in OCT for analysis of lipid content with Oil-Red-) staining. The Aperio whole slide digital imaging system (Scan Scope CS, Vista, Calif.) was used for imaging. All slides were imaged at 20×. The scan time ranged from 1.5 minutes to a maximum time of 2.25 minutes. The whole images were housed and stored in their Spectrum software system and images were shot from the whole slides.
The livers were evaluated using the NASH liver criteria for scoring. In this mouse study, one cross section of liver for each case was analyzed with the NASH score system. […]

Setting [1] is: FATZO mice on WDF, 4 weeks, LIVRQNAC+G 3885 mg/kg, LRQNAC 2469 mg/kg BID, OCA 30 mg/kg/day QD.
Where [2] appears, read: score 0-3, WDF fed FATZO mice, oral gavage 4 weeks, LIVRQNAC+G and LRQNAC leucine-matched BID, OCA QD.

As to `CC[C@H]1[C@@H](O)[C@@H]2[C@H](CC[C@]3(C)[C@@H]([C@H](C)CCC(=O)O)CC[C@@H]23)[C@@]2(C)CC[C@@H](O)C[C@@H]12` [OCA, 6α-ethyl-chenodeoxycholic acid], the “NAFLD activity score (NAS)” value (FATZO mice on WDF, 4 weeks, vs vehicle, LIVRQNAC 1500 or 3000 mg/kg, LIVRQNAC+G 3885 mg/kg, LRQNAC 2469 mg/kg, OCA 30 mg/kg/day) is “no significant effect”. Under setting [1], the “Body weight change compared to baseline” value is given as −3.9±1.5% and the “Liver weight (% body weight)” value was 6.81±0.2 % body weight. For the same compound, the “Liver Pathology NAS” value (WDF fed FATZO mice, oral gavage 4 weeks, LIVRQNAC+G and LRQNAC leucine-matched BID, OCA QD) amounted to 3.72 ± 0.147. Besides, the “Liver Pathology Ballooning” value (score 0-2, WDF fed FATZO mice, oral gavage 4 weeks, LIVRQNAC+G and LRQNAC leucine-matched BID, OCA QD) was 0.94 ± 0.056. Also, under setting [2], the “Liver Pathology Inflammation” value is 1.0 ± 0.0 and the “Liver Pathology Steatosis” value is listed as 1.78 ± 0.147.
